HELM strings list units from the 5' end as sugar, base in round brackets, then linkage (d deoxyribose, r ribose, m 2'-O-methyl, p phosphodiester). Strings are as the collection lists them; they lack the last nucleoside at the 3' end of the tested compound. [moe] = 2'-O-(2-methoxyethyl) (MOE); [sp] = phosphorothioate linkage; [m5C] = 5-methylcytosine
The substances below were run against PRNP (assay: mouse, dose not given). Settings: ASO.

Substance	3 h FOB score [score 0-7]
RNA1{[moe](G)[sp].[moe](T)p.[moe](T)p.[moe]([m5C])p.[moe](A)[sp].d([m5C])[sp].d(T)[sp].d(G)[sp].d(T)[sp].d(G)[sp].d(A)[sp].d(A)[sp].d(T)[sp].d(A)[sp].d(T)[sp].[moe](G)p.[moe](T)p.[moe]([m5C])[sp].[moe]([m5C])}$$$$ (last 3' nucleoside missing)	4.25
RNA1{[moe](G)[sp].[moe](T)p.[moe](T)p.[moe]([m5C])p.[moe](T)[sp].d(A)[sp].d(A)[sp].d(T)[sp].d(T)[sp].d(T)[sp].d(T)[sp].d(A)[sp].d(G)[sp].d(A)[sp].d(T)[sp].[moe]([m5C])p.[moe](A)p.[moe](T)[sp].[moe](T)}$$$$ (last 3' nucleoside missing)	2
RNA1{[moe](G)[sp].[moe](T)p.[moe](T)p.[moe]([m5C])p.[moe](T)[sp].d(T)[sp].d(T)[sp].d(T)[sp].d([m5C])[sp].d(T)[sp].d(T)[sp].d(T)[sp].d(G)[sp].d([m5C])[sp].d(A)[sp].[moe]([m5C])p.[moe](A)p.[moe]([m5C])[sp].[moe](T)}$$$$ (last 3' nucleoside missing)	6.25
RNA1{[moe](G)[sp].[moe](T)p.[moe]([m5C])p.[moe](A)p.[moe](A)[sp].d(A)[sp].d(A)[sp].d(T)[sp].d([m5C])[sp].d(A)[sp].d(T)[sp].d(T)[sp].d([m5C])[sp].d(T)[sp].d(G)[sp].[moe](G)p.[moe](T)p.[moe](T)[sp].[moe](T)}$$$$ (last 3' nucleoside missing)	1
RNA1{[moe](G)[sp].[moe](T)p.[moe]([m5C])p.[moe](A)p.[moe](G)[sp].d(T)[sp].d(T)[sp].d(T)[sp].d(T)[sp].d(T)[sp].d([m5C])[sp].d([m5C])[sp].d([m5C])[sp].[moe]([m5C])p.[moe](A)p.[moe]([m5C])[sp].[moe](A)}$$$$ (last 3' nucleoside missing)	0
RNA1{[moe](G)[sp].[moe](T)p.[moe]([m5C])p.[moe](A)p.[moe](G)[sp].d(T)[sp].d(T)[sp].d(T)[sp].d(T)[sp].d(T)[sp].d([m5C])[sp].d([m5C])[sp].d([m5C])[sp].d([m5C])[sp].d(A)[sp].[moe]([m5C])p.[moe](A)p.[moe](T)[sp].[moe](A)}$$$$ (last 3' nucleoside missing)	1
RNA1{[moe](G)[sp].[moe](T)p.[moe]([m5C])p.[moe](A)p.[moe](G)p.[moe](T)p.d(T)[sp].d(T)[sp].d(T)[sp].d(T)[sp].d([m5C])[sp].d([m5C])[sp].d([m5C])[sp].d([m5C])[sp].d(A)[sp].d([m5C])[sp].[moe](A)p.[moe](T)[sp].[moe](A)}$$$$ (last 3' nucleoside missing)	0
RNA1{[moe](G)[sp].[moe](T)p.[moe]([m5C])p.[moe](A)p.[moe](G)p.d(T)[sp].d(T)[sp].d(T)[sp].d(T)[sp].d(T)[sp].d([m5C])[sp].d([m5C])[sp].d([m5C])[sp].d([m5C])[sp].[moe](A)[sp].[moe]([m5C])p.[moe](A)p.[moe](T)}$$$$ (last 3' nucleoside missing)	0
RNA1{[moe](G)[sp].[moe](T)p.[moe]([m5C])p.[moe](A)p.[moe](G)p.d(T)[sp].d(T)[sp].d(T)[sp].d(T)[sp].d(T)[sp].d([m5C])[sp].d([m5C])[sp].d([m5C])[sp].d([m5C])[sp].[moe](A)p.[moe]([m5C])p.[moe](A)[sp].[moe](T)}$$$$ (last 3' nucleoside missing)	0
RNA1{[moe](G)[sp].[moe](T)p.[moe]([m5C])p.[moe](A)p.[moe](T)[sp].d(A)[sp].d(A)[sp].d(T)[sp].d(T)[sp].d(T)[sp].d(T)[sp].d([m5C])[sp].d(T)[sp].d(T)[sp].d(A)[sp].[moe](G)p.[moe]([m5C])p.[moe](T)[sp].[moe](A)}$$$$ (last 3' nucleoside missing)	0
RNA1{[moe](G)[sp].[moe](T)p.[moe]([m5C])p.[moe](A)p.[moe](T)p.[moe](A)p.d(A)[sp].d(T)[sp].d(T)[sp].d(T)[sp].d(T)[sp].d([m5C])[sp].d(T)[sp].d(T)[sp].d(A)[sp].d(G)[sp].[moe]([m5C])p.[moe](T)[sp].[moe](A)}$$$$ (last 3' nucleoside missing)	2.5
RNA1{[moe](G)[sp].[moe](T)p.[moe]([m5C])p.[moe](A)p.[moe](T)p.d(A)[sp].d(A)[sp].d(T)[sp].d(T)[sp].d(T)[sp].d(T)[sp].d([m5C])[sp].d(T)[sp].d(T)[sp].[moe](A)[sp].[moe](G)p.[moe]([m5C])p.[moe](T)}$$$$ (last 3' nucleoside missing)	0
RNA1{[moe](G)[sp].[moe](T)p.[moe]([m5C])p.[moe](A)p.d(G)[sp].d(T)[sp].d(T)[sp].d(T)[sp].d(T)[sp].d(T)[sp].d([m5C])[sp].d([m5C])[sp].d([m5C])[sp].d([m5C])[sp].[moe](A)p.[moe]([m5C])p.[moe](A)p.[moe](T)[sp].[moe](A)}$$$$ (last 3' nucleoside missing)	0
RNA1{[moe](G)[sp].[moe](T)p.[moe]([m5C])p.[moe](A)p.d(T)[sp].d(A)[sp].d(A)[sp].d(T)[sp].d(T)[sp].d(T)[sp].d(T)[sp].d([m5C])[sp].d(T)[sp].d(T)[sp].[moe](A)p.[moe](G)p.[moe]([m5C])p.[moe](T)[sp].[moe](A)}$$$$ (last 3' nucleoside missing)	0.25
RNA1{[moe](G)[sp].[moe](T)p.[moe]([m5C])p.[moe]([m5C])p.[moe](A)[sp].d(A)[sp].d(A)[sp].d(A)[sp].d(A)[sp].d(T)[sp].d(A)[sp].d(A)[sp].d(G)[sp].d(T)[sp].d([m5C])[sp].[moe]([m5C])p.[moe](A)p.[moe](G)[sp].[moe](A)}$$$$ (last 3' nucleoside missing)	1
RNA1{[moe](G)[sp].[moe](T)p.[moe]([m5C])p.[moe]([m5C])p.[moe](A)[sp].d(T)[sp].d(T)[sp].d(T)[sp].d(T)[sp].d([m5C])[sp].d(T)[sp].d(G)[sp].d(T)[sp].d(G)[sp].d([m5C])[sp].[moe](T)p.[moe](T)p.[moe](T)[sp].[moe](T)}$$$$ (last 3' nucleoside missing)	4.5
RNA1{[moe](G)[sp].[moe](T)p.[moe]([m5C])p.d(A)[sp].d(G)[sp].d(T)[sp].d(T)[sp].d(T)[sp].d(T)[sp].d(T)[sp].d([m5C])[sp].d([m5C])[sp].d([m5C])[sp].[moe]([m5C])p.[moe](A)p.[moe]([m5C])p.[moe](A)p.[moe](T)[sp].[moe](A)}$$$$ (last 3' nucleoside missing)	0
RNA1{[moe](G)[sp].[moe]([m5C])[sp].[moe]([m5C])[sp].[moe](A)[sp].[moe]([m5C])[sp].d(A)[sp].d(T)[sp].d(A)[sp].d(T)[sp].d(A)[sp].d(G)[sp].d(G)[sp].d(G)[sp].d(T)[sp].d([m5C])[sp].[moe]([m5C])[sp].[moe](T)[sp].[moe](T)[sp].[moe](T)}$$$$ (last 3' nucleoside missing)	4.25
RNA1{[moe](G)[sp].[moe]([m5C])p.[moe](A)p.[moe](A)p.[moe](G)[sp].d([m5C])[sp].d(A)[sp].d(G)[sp].d(T)[sp].d(T)[sp].d([m5C])[sp].d(T)[sp].d(T)[sp].d(T)[sp].d(T)[sp].[moe]([m5C])p.[moe](T)p.[moe](T)[sp].[moe](T)}$$$$ (last 3' nucleoside missing)	6
RNA1{[moe](G)[sp].[moe]([m5C])p.[moe](A)p.[moe](A)p.[moe]([m5C])[sp].d(G)[sp].d(G)[sp].d([m5C])[sp].d(T)[sp].d([m5C])[sp].d(A)[sp].d(T)[sp].d(G)[sp].d(A)[sp].d(T)[sp].[moe](G)p.[moe](A)p.[moe](A)[sp].[moe]([m5C])}$$$$ (last 3' nucleoside missing)	3.5
RNA1{[moe](G)[sp].[moe]([m5C])p.[moe](A)p.[moe](G)p.[moe](A)[sp].d(A)[sp].d(A)[sp].d(G)[sp].d(T)[sp].d(A)[sp].d(G)[sp].d([m5C])[sp].d(T)[sp].d(A)[sp].d(T)[sp].[moe]([m5C])p.[moe](A)p.[moe](T)[sp].[moe](T)}$$$$ (last 3' nucleoside missing)	4.25
RNA1{[moe](G)[sp].[moe]([m5C])p.[moe](A)p.[moe]([m5C])p.[moe](A)[sp].d([m5C])[sp].d(T)[sp].d(G)[sp].d(A)[sp].d([m5C])[sp].d([m5C])[sp].d(A)[sp].d(T)[sp].d(T)[sp].d(T)[sp].[moe](T)p.[moe](T)p.[moe](T)[sp].[moe](A)}$$$$ (last 3' nucleoside missing)	0
RNA1{[moe](G)[sp].[moe]([m5C])p.[moe](A)p.[moe]([m5C])p.[moe](A)p.[moe]([m5C])p.d(T)[sp].d(G)[sp].d(A)[sp].d([m5C])[sp].d([m5C])[sp].d(A)[sp].d(T)[sp].d(T)[sp].d(T)[sp].d(T)[sp].[moe](T)p.[moe](T)[sp].[moe](A)}$$$$ (last 3' nucleoside missing)	0
RNA1{[moe](G)[sp].[moe]([m5C])p.[moe](A)p.[moe]([m5C])p.[moe](A)p.d([m5C])[sp].d(T)[sp].d(G)[sp].d(A)[sp].d([m5C])[sp].d([m5C])[sp].d(A)[sp].d(T)[sp].d(T)[sp].[moe](T)[sp].[moe](T)p.[moe](T)p.[moe](T)}$$$$ (last 3' nucleoside missing)	0
RNA1{[moe](G)[sp].[moe]([m5C])p.[moe](A)p.[moe]([m5C])p.d(A)[sp].d([m5C])[sp].d(T)[sp].d(G)[sp].d(A)[sp].d([m5C])[sp].d([m5C])[sp].d(A)[sp].d(T)[sp].d(T)[sp].[moe](T)p.[moe](T)p.[moe](T)p.[moe](T)[sp].[moe](A)}$$$$ (last 3' nucleoside missing)	2.25
RNA1{[moe](G)[sp].[moe]([m5C])p.[moe](T)p.[moe](A)p.[moe](G)[sp].d(G)[sp].d(T)[sp].d(G)[sp].d(A)[sp].d([m5C])[sp].d(A)[sp].d(A)[sp].d(T)[sp].d(A)[sp].d(T)[sp].[moe]([m5C])p.[moe](A)p.[moe](A)[sp].[moe](A)}$$$$ (last 3' nucleoside missing)	0

Reference: the OligoGym collection
